From PubChem BioAssay AID256 (DTP/NCI, 2004)
Where “and” joins values, the source holds several entries; their conditions need not be identical. Equal entries are not always repeated. Toxic doses and inconclusive results are not listed. Rule for the calls: active = survival T/C of 150% or more; inactive = T/C below 125% in these data.

System: CD2F1 mice, L1210 leukemia ip, survival T/C
Assay: NCI In Vivo Anticancer Drug Screen. Data for tumor model L1210 Leukemia (intraperitoneal) in CD2F1 (CDF1) mice
Settings: higher = longer survival
Procedure, shortened: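 Tumor-bearing mice (transplanted tumor) were split into treated and vehicle control groups, and the measured endpoint of each treated group was divided by that of its vehicle controls.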

[1] = endpoint: mean survival time, dose: 100.0 mg/kg/injection, schedule: Q01DX009 (ip), vehicle: saline with Tween-80
[2] = endpoint: mean survival time, dose: 100.0 mg/kg/injection, schedule: Q04DX003 (ip), vehicle: saline with Tween-80
[3] = endpoint: mean survival time, dose: 200.0 mg/kg/injection, schedule: Q04DX003 (ip), vehicle: saline with Tween-80
[4] = endpoint: mean survival time, dose: 400.0 mg/kg/injection, schedule: Q04DX003 (ip), vehicle: saline with Tween-80
[5] = endpoint: mean survival time, dose: 200.0 mg/kg/injection, schedule: Q01DX009 (ip), vehicle: saline with Tween-80
[6] = endpoint: mean survival time, dose: 400.0 mg/kg/injection, schedule: Q01DX009 (ip), vehicle: saline with Tween-80
[7] = endpoint: mean survival time, dose: 100.0 mg/kg/injection, schedule: Q01DX001 (ip), vehicle: saline
[8] = endpoint: mean survival time, dose: 200.0 mg/kg/injection, schedule: Q01DX001 (ip), vehicle: saline
[9] = endpoint: mean survival time, dose: 400.0 mg/kg/injection, schedule: Q01DX001 (ip), vehicle: saline

Measured: T/C

CC(C)OC(=O)c1cc([N+](=O)[O-])c(Sc2ncnc3nc[nH]c23)c([N+](=O)[O-])c1
inactive: endpoint: mean survival time, dose: 0.63 mg/kg/injection, schedule: Q01DX005 (ip), vehicle: other 109 % of control | endpoint: mean survival time, dose: 1.25 mg/kg/injection, schedule: Q01DX005 (ip), vehicle: other 119 % of control | endpoint: mean survival time, dose: 2.5 mg/kg/injection, schedule: Q01DX005 (ip), vehicle: other 114 % of control | endpoint: mean survival time, dose: 5.0 mg/kg/injection, schedule: Q01DX005 (ip), vehicle: other 124 % of control | endpoint: mean survival time, dose: 9.9 mg/kg/injection, schedule: Q01DX005 (ip), vehicle: other 115 % of control | endpoint: mean survival time, dose: 100.0 mg/kg/injection, schedule: Q01DX005 (ip), vehicle: other 89 % of control
active: endpoint: mean survival time, dose: 25.0 mg/kg/injection, schedule: Q01DX005 (ip), vehicle: other 157 % of control | endpoint: mean survival time, dose: 33.3 mg/kg/injection, schedule: Q01DX005 (ip), vehicle: other 158 % of control | endpoint: mean survival time, dose: 50.0 mg/kg/injection, schedule: Q01DX005 (ip), vehicle: other 151 % of control and 178 % of control and 184 % of control

NC(=O)Oc1cccc(OC(N)=O)c1
inactive: endpoint: mean survival time, dose: 25.0 mg/kg/injection, schedule: Q01DX009 (ip), vehicle: water 95 % of control | endpoint: mean survival time, dose: 50.0 mg/kg/injection, schedule: Q01DX009 (ip), vehicle: water 106 % of control | endpoint: mean survival time, dose: 100.0 mg/kg/injection, schedule: Q01DX009 (ip), vehicle: water 106 % of control | endpoint: mean survival time, dose: 200.0 mg/kg/injection, schedule: Q01DX009 (ip), vehicle: water 104 % of control | endpoint: mean survival time, dose: 400.0 mg/kg/injection, schedule: Q01DX009 (ip), vehicle: water 106 % of control

O=C(Nc1ccc(Cl)c(C(F)(F)F)c1)Nc1cc(C(F)(F)F)ccc1Sc1cc(Cl)c(Cl)cc1S(=O)(=O)O
inactive: [1] 101 % of control

Cc1c(C)c2ccccc2[nH]c1=O
inactive: [2] 99 % of control | [3] 96 % of control | [4] 100 % of control

O=C(OC12CCCC1CC2)c1ccc([N+](=O)[O-])cc1 (configuration not stated)
inactive: [1] 97 % of control | [5] 95 % of control

O=C(NCc1ccccc1)C1C2CCC(C2)C1C(=O)NCc1ccccc1 (configuration not stated)
inactive: [2] 102 % of control | [3] 102 % of control | [4] 98 % of control

COc1cc(NC(=O)CC(C)=O)cc(OC)c1OC
inactive: [1] 100 % of control | [2] 102 % of control | [5] 100 % of control | [3] 96 % of control | [6] 101 % of control | [4] 96 % of control

COc1ccc(CCNC(=O)Cc2cc(OC)c(OC)cc2[N+](=O)[O-])cc1OC
inactive: [7] 94 % of control | [8] 97 % of control | [9] 94 % of control

CC/C=C(\C)C(CCC)(CN=O)C(=O)OCC (configuration not stated)
inactive: endpoint: mean survival time, dose: 75.0 mg/kg/injection, schedule: Q01DX001 (ip), vehicle: saline 101 % of control | endpoint: mean survival time, dose: 150.0 mg/kg/injection, schedule: Q01DX001 (ip), vehicle: saline 97 % of control | endpoint: mean survival time, dose: 300.0 mg/kg/injection, schedule: Q01DX001 (ip), vehicle: saline 95 % of control

NC(=O)NNc1ccc([N+](=O)[O-])cc1[N+](=O)[O-]
inactive: endpoint: mean survival time, dose: 25.0 mg/kg/injection, schedule: Q04DX003 (ip), vehicle: saline with Tween-80 93 % of control | endpoint: mean survival time, dose: 50.0 mg/kg/injection, schedule: Q04DX003 (ip), vehicle: saline with Tween-80 89 % of control | [2] 97 % of control

CC(C)(CCl)c1ccc(C(C)(C)CCl)cc1
inactive: [2] 100 % of control | [3] 91 % of control | [4] 100 % of control

CCCCOP(=O)(OCCCC)C(CCC)OP(OC(CCC)P(=O)(OCCCC)OCCCC)OC(CCC)P(=O)(OCCCC)OCCCC (configuration not stated)
inactive: endpoint: mean survival time, dose: 100.0 mg/kg/injection, schedule: Q04DX002 (ip), vehicle: saline 103 % of control | endpoint: mean survival time, dose: 200.0 mg/kg/injection, schedule: Q04DX002 (ip), vehicle: saline 89 % of control | endpoint: mean survival time, dose: 400.0 mg/kg/injection, schedule: Q04DX002 (ip), vehicle: saline 97 % of control

Cc1ccc2[nH]c(=O)[nH]c(=O)c2n1
inactive: endpoint: mean survival time, dose: 75.0 mg/kg/injection, schedule: Q01DX001 (ip), vehicle: other 98 % of control | endpoint: mean survival time, dose: 150.0 mg/kg/injection, schedule: Q01DX001 (ip), vehicle: other 98 % of control

O=c1c(O)c(O)c1=O.[NH2-].[NH2-].[NH2-].[NH2-].[NH2-].[Ru+5]
inactive: endpoint: median survival time, dose: 3.12 mg/kg/injection, schedule: Q01DX005 (ip), vehicle: saline 119 % of control | endpoint: median survival time, dose: 3.12 mg/kg/injection, schedule: Q01DX005 (ip), vehicle: suspension in saline 114 % of control | endpoint: median survival time, dose: 6.25 mg/kg/injection, schedule: Q01DX005 (ip), vehicle: saline 122 % of control | endpoint: median survival time, dose: 6.25 mg/kg/injection, schedule: Q01DX005 (ip), vehicle: suspension in saline 114 % of control | endpoint: median survival time, dose: 12.5 mg/kg/injection, schedule: Q01DX005 (ip), vehicle: suspension in saline 109 % of control | endpoint: median survival time, dose: 25.0 mg/kg/injection, schedule: Q01DX005 (ip), vehicle: saline 116 % of control

O=C(CN1C(=O)CCC1=O)NCCc1cccc(OCc2ccccc2)c1
inactive: [1] 94 % of control | [2] 97 % of control | [5] 89 % of control | [3] 97 % of control | [6] 91 % of control | [4] 97 % of control

C1=NC(c2ccccn2)=NNC(c2ccccn2)=C1c1ccccc1
inactive: endpoint: mean survival time, dose: 12.5 mg/kg/injection, schedule: Q01DX009 (ip), vehicle: Klucel (hydroxypropylcellulose) (HPC) 97 % of control | endpoint: mean survival time, dose: 25.0 mg/kg/injection, schedule: Q01DX009 (ip), vehicle: Klucel (hydroxypropylcellulose) (HPC) 100 % of control | endpoint: mean survival time, dose: 50.0 mg/kg/injection, schedule: Q01DX009 (ip), vehicle: Klucel (hydroxypropylcellulose) (HPC) 95 % of control | endpoint: mean survival time, dose: 100.0 mg/kg/injection, schedule: Q01DX009 (ip), vehicle: Klucel (hydroxypropylcellulose) (HPC) 100 % of control | endpoint: mean survival time, dose: 200.0 mg/kg/injection, schedule: Q01DX009 (ip), vehicle: Klucel (hydroxypropylcellulose) (HPC) 97 % of control

CN(C)C1C(c2ccccc2)S(=O)(=O)C1(C)C (configuration not stated)
inactive: [7] 100 % of control | endpoint: mean survival time, dose: 100.0 mg/kg/injection, schedule: Q04DX003 (ip), vehicle: saline 96 % of control | [8] 100 % of control | endpoint: mean survival time, dose: 200.0 mg/kg/injection, schedule: Q04DX003 (ip), vehicle: saline 101 % of control | [9] 100 % of control | endpoint: mean survival time, dose: 400.0 mg/kg/injection, schedule: Q04DX003 (ip), vehicle: saline 97 % of control

CCC(CC(N)=O)C(C#N)(C#N)C(N)=O (configuration not stated)
inactive: endpoint: mean survival time, dose: 100.0 mg/kg/injection, schedule: Q01DX001 (ip), vehicle: saline with Tween-80 100 % of control | endpoint: mean survival time, dose: 200.0 mg/kg/injection, schedule: Q01DX001 (ip), vehicle: saline with Tween-80 98 % of control | endpoint: mean survival time, dose: 400.0 mg/kg/injection, schedule: Q01DX001 (ip), vehicle: saline with Tween-80 98 % of control

O=C1Nc2ccccc2/C1=C/c1c[nH]c2ccccc12
inactive: endpoint: mean survival time, dose: 50.0 mg/kg/injection, schedule: Q04DX002 (ip), vehicle: saline with Tween-80 103 % of control | endpoint: mean survival time, dose: 100.0 mg/kg/injection, schedule: Q04DX002 (ip), vehicle: saline with Tween-80 90 % of control | endpoint: mean survival time, dose: 200.0 mg/kg/injection, schedule: Q04DX002 (ip), vehicle: saline with Tween-80 107 % of control

Cc1c(C)c2c(c(C)c1O)CCC(C)(CCCC(C)CCCC(C)CCCC(C)C)O2 (configuration not stated)
inactive: [1] 101 % of control | [5] 95 % of control | endpoint: mean survival time, dose: 400.0 mg/kg/injection, schedule: Q01DX009 (ip), vehicle: Klucel (hydroxypropylcellulose) (HPC) 98 % of control | [6] 101 % of control | endpoint: mean survival time, dose: 800.0 mg/kg/injection, schedule: Q01DX009 (ip), vehicle: Klucel (hydroxypropylcellulose) (HPC) 96 % of control | endpoint: mean survival time, dose: 1200.0 mg/kg/injection, schedule: Q01DX009 (ip), vehicle: Klucel (hydroxypropylcellulose) (HPC) 96 % of control | endpoint: mean survival time, dose: 1600.0 mg/kg/injection, schedule: Q01DX009 (ip), vehicle: Klucel (hydroxypropylcellulose) (HPC) 90 % of control

O=C(O)c1nccc2c([N+](=O)[O-])cccc12
inactive: endpoint: mean survival time, dose: 100.0 mg/kg/injection, schedule: Q01DX009 (ip), vehicle: acetone 95 % of control | endpoint: mean survival time, dose: 200.0 mg/kg/injection, schedule: Q01DX009 (ip), vehicle: acetone 95 % of control | endpoint: mean survival time, dose: 400.0 mg/kg/injection, schedule: Q01DX009 (ip), vehicle: acetone 98 % of control

OC(c1ccccc1)C1(c2ccccc2)OCCO1 (configuration not stated)
inactive: [1] 95 % of control | [2] 97 % of control | [5] 90 % of control | [3] 92 % of control | [6] 92 % of control | [4] 98 % of control

Cc1ccccc1NC(=O)c1ccccc1
inactive: [1] 97 % of control | [5] 100 % of control | [6] 91 % of control

O=P(OCc1ccccc1)(N(CCCl)CCCl)N1CCCCC1 (configuration not stated)
inactive: endpoint: mean survival time, dose: 62.5 mg/kg/injection, schedule: Q01DX010 (ip), vehicle: saline 98 % of control | endpoint: mean survival time, dose: 125.0 mg/kg/injection, schedule: Q01DX010 (ip), vehicle: saline 101 % of control | endpoint: mean survival time, dose: 250.0 mg/kg/injection, schedule: Q01DX010 (ip), vehicle: saline 90 % of control
